Results as given in paper PMC8584303 (International Journal of Molecular Sciences, 2021).

Tests used:
LdGSTu1 [1] = target: T1, LdGSTu1 (Leptinotarsa decemlineata, UniProt A0A1P8PEY0); experiment: inhibition of GSH-CDNB conjugation by the recombinant enzyme (residual activity at […]); type: biochemical
T1 construct: full-length LdGSTu1
T1 sequence (A0A1P8PEY0 1-230): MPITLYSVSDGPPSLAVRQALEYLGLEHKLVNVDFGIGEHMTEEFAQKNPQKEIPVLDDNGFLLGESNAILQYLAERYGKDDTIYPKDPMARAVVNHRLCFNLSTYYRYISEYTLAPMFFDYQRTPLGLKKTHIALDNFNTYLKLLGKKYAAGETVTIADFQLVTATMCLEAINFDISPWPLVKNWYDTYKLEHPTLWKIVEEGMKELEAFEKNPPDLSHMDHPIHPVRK

LdGSTu1 [2] = target: T1, LdGSTu1; experiment: steady-state enzyme kinetics of the purified enzyme (Km); type: biochemical
LdGSTu1 [3] = target: T1, LdGSTu1; experiment: inhibition of GSH-CDNB conjugation by the recombinant enzyme (residual activity […] at […], […] at […]); type: biochemical
[4] = substrate: CC(=O)Oc1ccc([N+](=O)[O-])cc1; experiment: steady-state enzyme kinetics of the purified enzyme (Km); type: biochemical, Leptinotarsa decemlineata; settings: GSH

Q: For `O=[N+]([O-])NC1=NCCN1Cc1ccc(Cl)nc1` [imidacloprid], which “%” value (LdGSTu1 [1]) is on record?
A: 66.4% residual activity at 5 mM

Q: For `O=[N+]([O-])c1ccc(Cl)c([N+](=O)[O-])c1` [CDNB, 1-chloro-2,4-dinitrobenzene], which Km (LdGSTu1 [2]) is on record?
A: 542 ± 88 µM

Q: Which “%” value (LdGSTu1 [1]) does the source give for `C/C(=N\C#N)N(C)Cc1ccc(Cl)nc1` [acetamiprid] here?
A: 39.1% residual activity at 5 mM

Q: For `CCOP(=S)(OCC)Oc1cc(C)nc(C(C)C)n1` [diazinon], which “%” value (LdGSTu1 [1]) is on record?
A: 75.3% residual activity at 5 mM

Q: How did the “%” value (LdGSTu1 [3]) turn out when `C=C(CC)C(=O)c1ccc(OCC(=O)O)c(Cl)c1Cl` [EA, ethacrynic acid] was run?
A: 49.6% residual activity at 200 µM

Q: `CCOP(=S)(OCC)Oc1nc(Cl)c(Cl)cc1Cl` [chlorpyrifos] was tested. Which “%” value (LdGSTu1 [1]) did it give?
A: 70.5% residual activity at 5 mM

Q: For `CN1COCN(Cc2cnc(Cl)s2)/C1=N\[N+](=O)[O-]` [thiamethoxam], which “%” value (LdGSTu1 [1]) is on record?
A: 72.3% residual activity at 5 mM

B1: LdGSTu1 (Leptinotarsa decemlineata) (protein)
chain: MPITLYSVSDGPPSLAVRQALEYLGLEHKLVNVDFGIGEHMTEEFAQKNPQKEIPVLDDNGFLLGESNAILQYLAERYGKDDTIYPKDPMARAVVNHRLCFNLSTYYRYISEYTLAPMFFDYQRTPLGLKKTHIALDNFNTYLKLLGKKYAAGETVTIADFQLVTATMCLEAINFDISPWPLVKNWYDTYKLEHPTLWKIVEEGMKELEAFEKNPPDLSHMDHPIHPVRK
notes: full-length LdGSTu1
Q: How did the Km [4] turn out when B1 was run?
A: 1.830 ± 0.572 mM

Q: And the Vmax [4]?
A: 13.5 µM/min

Q: What about the kcat [4] of the same molecule?
A: 0.128 ± 0.0202 s⁻¹

Q: And the kcat/Km [4]?
A: 70 M⁻¹ s⁻¹
